Assay results: ChEMBL document CHEMBL1201862, “PubChem BioAssay data set” (2004)
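Results reflect a 48-hour exposure of cells in 96-well plates to compound at five concentrations. The concentration for 50% growth inhibition is given as GI50.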 Active and inactive are the calls of the source. No stated cut-off is given here; in the data, active = GI50 up to about 1.1 µM and inactive = higher.

Key:
Test in all cases: DTP human tumour cell line panel, 48 h
HL-60 = system: HL-60
CCRF-CEM = system: CCRF-CEM
BT-549 = system: BT-549
OVCAR-5 = system: OVCAR-5
DU-145 = system: DU-145
Hs-578T = system: Hs-578T
T47D = system: T47D
A498 = system: A498
HT-29 = system: HT-29
NCI/ADR-RES = system: NCI/ADR-RES
SN12C = system: SN12C
HCT-116 = system: HCT-116
RXF 393 = system: RXF 393
U-251 = system: U-251
M14 = system: M14
MCF7 = system: MCF7
SF-268 = system: SF-268
NCI-H460 = system: NCI-H460
NCI-H23 = system: NCI-H23
HOP-92 = system: HOP-92

Measured: GI50

Nc1ccc(Cc2ccc(/N=C\c3ccc(OCc4cccc(COc5ccc(/C=N\c6ccc(Cc7ccc(N)cc7)cc6)cc5)n4)cc3)cc2)cc1
inactive: HL-60 > 100 µM | CCRF-CEM > 100 µM | BT-549 > 100 µM | OVCAR-5 > 100 µM | DU-145 > 100 µM | Hs-578T 65.6 µM | T47D 68.9 µM | A498 61.5 µM | HT-29 > 100 µM | NCI/ADR-RES > 100 µM | SN12C > 100 µM | HCT-116 > 100 µM | RXF 393 23.1 µM | U-251 41 µM | M14 > 100 µM | MCF7 > 100 µM | SF-268 45.2 µM | NCI-H460 > 100 µM | NCI-H23 99.1 µM

O=c1[nH]c(=O)n(C2OC(CO)C(O)C(F)C2O)cc1F (stereo unspecified)
inactive: HL-60 > 100 µM | CCRF-CEM > 100 µM | BT-549 > 100 µM | OVCAR-5 > 100 µM | DU-145 > 100 µM | Hs-578T > 100 µM | T47D > 100 µM | A498 > 100 µM | HT-29 > 100 µM | NCI/ADR-RES > 100 µM | SN12C > 100 µM | HCT-116 > 100 µM | U-251 > 100 µM | M14 > 100 µM | MCF7 > 100 µM | SF-268 > 100 µM | NCI-H460 > 100 µM | NCI-H23 > 100 µM | HOP-92 > 100 µM

CC(=O)OCCn1c(Cc2ccc(C)cc2)nn(C(C)=O)c1=O
inactive: HL-60 > 100 µM | BT-549 > 100 µM | OVCAR-5 > 100 µM | DU-145 > 100 µM | Hs-578T > 100 µM | T47D > 100 µM | A498 > 100 µM | HT-29 > 100 µM | NCI/ADR-RES > 100 µM | SN12C > 100 µM | HCT-116 > 100 µM | U-251 > 100 µM | M14 > 100 µM | MCF7 > 100 µM | SF-268 > 100 µM | NCI-H460 > 100 µM | NCI-H23 > 100 µM | HOP-92 > 100 µM

CCOC(=O)c1c(N2CCCC2)[nH]c(=O)c(C(c2ccc(OC)cc2)c2c(O)c(C(=O)OCC)c(N3CCCC3)[nH]c2=O)c1O
inactive: CCRF-CEM > 100 µM | BT-549 76 µM | OVCAR-5 52.7 µM | DU-145 > 100 µM | Hs-578T > 100 µM | T47D > 100 µM | A498 > 100 µM | NCI/ADR-RES > 100 µM | SN12C > 100 µM | HCT-116 > 100 µM | RXF 393 57.3 µM | U-251 48.9 µM | M14 > 100 µM | MCF7 > 100 µM | SF-268 49.5 µM | NCI-H460 > 100 µM | NCI-H23 82 µM | HOP-92 12.3 µM

CC(=O)Nn1c(Cc2ccc(Cl)cc2)nn(C)c1=O
inactive: HL-60 > 100 µM | CCRF-CEM > 100 µM | BT-549 > 100 µM | OVCAR-5 > 100 µM | DU-145 > 100 µM | Hs-578T > 100 µM | T47D > 100 µM | A498 > 100 µM | HT-29 > 100 µM | NCI/ADR-RES > 100 µM | SN12C > 100 µM | HCT-116 > 100 µM | U-251 > 100 µM | M14 > 100 µM | MCF7 > 100 µM | SF-268 > 100 µM | NCI-H460 > 100 µM | NCI-H23 > 100 µM | HOP-92 > 100 µM

CCOC(=O)Cc1nc2c(N)ncnc2n1C1OC(COC(C)=O)C(OC(C)=O)C1OC(C)=O (stereo unspecified)
inactive: HL-60 > 100 µM | CCRF-CEM > 100 µM | BT-549 > 100 µM | DU-145 > 100 µM | Hs-578T > 100 µM | T47D > 100 µM | A498 > 100 µM | HT-29 > 100 µM | NCI/ADR-RES > 100 µM | SN12C > 100 µM | HCT-116 > 100 µM | U-251 > 100 µM | M14 > 100 µM | MCF7 > 100 µM | SF-268 > 100 µM | NCI-H460 > 100 µM | NCI-H23 > 100 µM | HOP-92 83.9 µM
